Results as given in patent US20230157319A1, “SUPPLEMENTS AND COMPOSITIONS CONTAINING AMINO ACIDS AND IGF-1 AND METHODS OF USE” (PURETEIN BIOSCIENCE LLC, priority 2020, published 2023).

System: porcine satellite cells
Test: myotube size of differentiated porcine satellite cells, 72 hour treatment
Type: cell-based
Details: for myotube size compared to the control treatment: each alone in DM: 5 ng/mL IGF-1, 4 mM L-glutamine, 10 mM L-lysine, 10 μM L-methionine, 72 hour, FIG. 1; for myotube size compared to the control treatment / myotube growth on addition to the combination: 1 mM L-leucine, 1 mM L-arginine; for useful inclusion (minimum amount required to produce the maximal growth response): titrated within the combination with 5 ng/mL active IGF-1, FIGS. 3-5; for myotube growth on addition to the combination: titrated 0.5-3 mM into 5 ng/mL IGF-1, 3 mM L-glutamine, FIGS. 6 and 7

Row | Compound | myotube size compared to the control treatment | useful inclusion (minimum amount required to produce the maximal growth response) | myotube growth on addition to the combination
1 | N=C(N)NCCC[C@H](N)C(=O)O [L-arginine] | more profound growth response of myotubes | 1 mM | –
2 | NC(=O)CC[C@H](N)C(=O)O [L-glutamine] | more profound growth response of myotubes | 3 mM | –
3 | CC(C)C[C@H](N)C(=O)O [L-leucine] | more profound growth response of myotubes | 1 mM | –
4 | NCCCC[C@H](N)C(=O)O [L-lysine] | increase the myotube size compared to the control treatment | – | did not provide any increase in myotube growth
5 | CSCC[C@H](N)C(=O)O [L-methionine] | increase the myotube size compared to the control treatment | – | did not provide any increase in myotube growth
6 | insulin-like growth factor 1 [IGF-1] | increase the myotube size compared to the control treatment | – | –
